The values that follow come from ChEMBL document CHEMBL1152876, “Synthesis and evaluation of novel phosphoramidate prodrugs of 2'-methyl cytidine as inhibitors of hepatitis C virus NS5B polymerase” (Bioorg Med Chem Lett, 2009).

Each structure is given as a SMILES string. Where only a bound is given, the exact number is not on record here.

In data set [1] the test system is Hepatitis C virus. Put plainly: Antiviral activity against HCV infected in human hepatoma cells by replicon assay. The data set is classed as functional, Hepacivirus hominis.
Data set [2] has as its system Rattus norvegicus. Put plainly: Metabolic stability in rat liver assessed as nucleoside triphosphate formation at 30 umol/kg, po after 6 hrs. The conditions noted are these: in vivo.
Data set [3] concerns Hepatocyte. Put plainly: Metabolic stability in rat hepatocyte assessed as nucleoside triphosphate at 10 uM level after 2 hrs. The conditions noted are these: hepatocytes.
Data set [4] relates to Hepatocyte. Put plainly: Metabolic stability in human hepatocyte assessed as nucleoside triphosphate at 10 uM level after 2 hrs. The conditions noted are these: hepatocytes.

In turn, `C[C@@]1(O)[C@H](O)[C@@H](COP(=O)(NCCOC(=O)C2CCCCCC2)Oc2ccccc2)O[C@H]1n1ccc(N)nc1=O` (some centres not stated) showed an Activity in data set [1] of 1160 nM.
On the same count and under the same terms, then `CC(C)(C)C(=O)OCCNP(=O)(OC[C@H]1O[C@@H](n2ccc(N)nc2=O)[C@](C)(O)[C@@H]1O)Oc1ccccc1` (some centres not stated), with 226 nM.
Molecule `C[C@@]1(O)[C@H](O)[C@@H](COP(=O)(NCCOC(=O)c2ccccc2)Oc2ccccc2)O[C@H]1n1ccc(N)nc1=O` (some centres not stated) came in with an Activity in data set [1] of 1960 nM. The Stability in data set [2] is recorded as 0.3 nmol/g.
`CC(C)C(=O)OCC(Cc1ccccc1)NP(=O)(OC[C@H]1O[C@@H](n2ccc(N)nc2=O)[C@](C)(O)[C@@H]1O)Oc1ccccc1` (some centres not stated) had an Activity in data set [1] of 921 nM.
The same measure, in the same setting: as for `CC(C)C(=O)O[C@H]1CCN(P(=O)(OC[C@H]2O[C@@H](n3ccc(N)nc3=O)[C@](C)(O)[C@@H]2O)Oc2ccccc2)C1` (some centres not stated), the figure is less than 20000 nM; as for `CC(C)CC(COC(=O)C(C)(C)C)NP(=O)(OC[C@H]1O[C@@H](n2ccc(N)nc2=O)[C@](C)(O)[C@@H]1O)Oc1ccccc1` (some centres not stated), 1840 nM; as for `CC(CNP(=O)(OC[C@H]1O[C@@H](n2ccc(N)nc2=O)[C@](C)(O)[C@@H]1O)Oc1ccccc1)OC(=O)C(C)C` (some centres not stated), 585 nM.
Still for that read-out and setting: as for `CCC(CC)C(=O)OCCNP(=O)(OC[C@H]1O[C@@H](n2ccc(N)nc2=O)[C@](C)(O)[C@@H]1O)Oc1ccccc1` (stereo in doubt; 9) [DIASTEREOMERIC MIX], the figure is 2830 nM.
On the same count and under the same terms, as for `CCC(CC)C(=O)OCCNP(=O)(OC[C@H]1O[C@@H](n2ccc(N)nc2=O)[C@](C)(O)[C@@H]1O)Oc1ccccc1` (stereo in doubt; 9b) [DIASTEREOMERIC MIX], the figure is 625 nM; as for `CCCC(CCC)C(=O)OCCNP(=O)(OC[C@H]1O[C@@H](n2ccc(N)nc2=O)[C@](C)(O)[C@@H]1O)Oc1ccccc1` (stereo in doubt; 10a) [2-((((2R,3R,4R,5R)-5-(4-AMINO-2-OXOPYRIMIDIN-1(2H)-YL)-3,4-DIHYDROXY-4-METHYLTETRAHYDROFURAN-2-YL)METHOXY)(PHENOXY)PHOSPHORYLAMINO)ETHYL 2-PROPYLPENTANOATE (DIASTEREOMERIC  MIX)], 450 nM.
In data set [1], `CCCC(CCC)C(=O)OCCNP(=O)(OC[C@H]1O[C@@H](n2ccc(N)nc2=O)[C@](C)(O)[C@@H]1O)Oc1ccccc1` (stereo in doubt; 10b) [2-((((2R,3R,4R,5R)-5-(4-AMINO-2-OXOPYRIMIDIN-1(2H)-YL)-3,4-DIHYDROXY-4-METHYLTETRAHYDROFURAN-2-YL)METHOXY)(PHENOXY)PHOSPHORYLAMINO)ETHYL 2-PROPYLPENTANOATE (DIASTEREOMERIC  MIX)] gave an Activity of 240 nM. Also, in data set [2], the Stability came to 0.2 nmol/g.
On to `CC(C)[C@H](N)C(=O)O[C@@H]1[C@@H](CO)O[C@@H](n2ccc(N)nc2=O)[C@]1(C)O` [VALOPICITABINE], for which the Activity in data set [1] amounted to 7600 nM. The Stability in data set [3] was less than 14 µM; in data set [4] it was 17 µM; in data set [2] it was 0.2 nmol/g.
